The source made the active and inactive calls. No cut-off for these calls is given here.
Legend:
Endonuclease 8-like 1 [1] = target: T1, Endonuclease 8-like 1 (Homo sapiens, UniProt Q96FI4); assay: Inhibition of NEIL1 (unknown origin) assessed as remaining enzyme activity at 50 uM using Sp/Gh substrate incubated for 40 mins by TAMRA fluorescence-based assay
[2] = target: T2, Endonuclease III-like protein 1 (Homo sapiens) (UniProt P78549); assay: Inhibition of NTH1 (unknown origin) assessed as remaining enzyme activity at 50 uM incubated for 40 mins by TAMRA fluorescence-based assay
T2 sequence (whole entry): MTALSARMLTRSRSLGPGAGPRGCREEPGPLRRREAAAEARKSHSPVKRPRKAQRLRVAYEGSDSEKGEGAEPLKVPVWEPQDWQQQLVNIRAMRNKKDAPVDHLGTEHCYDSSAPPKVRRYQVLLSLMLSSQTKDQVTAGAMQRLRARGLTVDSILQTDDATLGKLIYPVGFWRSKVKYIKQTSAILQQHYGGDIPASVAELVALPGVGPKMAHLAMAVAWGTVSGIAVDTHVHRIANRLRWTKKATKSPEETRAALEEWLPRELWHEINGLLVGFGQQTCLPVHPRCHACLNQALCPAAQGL

[3] = target: T2, Endonuclease III-like protein 1 (Homo sapiens); assay: Inhibition of NTH1 (unknown origin) assessed as effect on DNA lesions per 10^6 DNA bases using thymine glycol substrate incubated for 1 hr by GC-MS/MS assay
[4] = target: T2, Endonuclease III-like protein 1 (Homo sapiens); assay: Inhibition of NTH1 (unknown origin) assessed as effect on DNA lesions per 10^6 DNA bases using FapyAde substrate incubated for 1 hr by GC-MS/MS assay
[5] = target: T3, Formamidopyrimidine-DNA glycosylase (Escherichia coli (strain K12)) (UniProt P05523); assay: Inhibition of Escherichia coli FPG assessed as remaining enzyme activity at 50 uM using 8-oxo-Gua substrate incubated for 10 mins by TAMRA fluorescence-based assay
T3 sequence (whole entry): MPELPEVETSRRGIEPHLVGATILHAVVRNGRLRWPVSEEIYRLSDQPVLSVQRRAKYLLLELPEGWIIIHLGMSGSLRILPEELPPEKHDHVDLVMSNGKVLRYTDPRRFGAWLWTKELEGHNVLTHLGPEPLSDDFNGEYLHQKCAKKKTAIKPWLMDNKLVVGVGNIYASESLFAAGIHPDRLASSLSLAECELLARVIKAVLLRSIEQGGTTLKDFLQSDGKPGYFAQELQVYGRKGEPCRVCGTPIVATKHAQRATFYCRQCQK

Endonuclease 8-like 1 [6] = target: T1, Endonuclease 8-like 1; assay: Inhibition of NEIL1 (unknown origin) assessed as effect on DNA lesions per 10^6 DNA bases using FapyAde substrate incubated for 1 hr by GC-MS/MS assay
Endonuclease 8-like 1 [7] = target: T1, Endonuclease 8-like 1; assay: Inhibition of NEIL1 (unknown origin) using Sp/Gh substrate incubated for 40 mins by TAMRA fluorescence-based assay
[8] = Binding affinity to duplex DNA (unknown origin) assessed as induction of DNA intercalation at 50 uM incubated for 30 mins by gel electrophoresis
[9] = target: T2, Endonuclease III-like protein 1 (Homo sapiens); assay: Inhibition of NTH1 (unknown origin) assessed as effect on DNA lesions per 10^6 DNA bases using FapyGua substrate incubated for 1 hr by GC-MS/MS assay
Endonuclease 8-like 1 [10] = target: T1, Endonuclease 8-like 1; assay: Inhibition of NEIL1 (unknown origin) assessed as effect on DNA lesions per 10^6 DNA bases using 5-OH-5-MeHyd substrate incubated for 1 hr by GC-MS/MS assay
Endonuclease 8-like 1 [11] = target: T1, Endonuclease 8-like 1; assay: Inhibition of NEIL1 (unknown origin) assessed as effect on DNA lesions per 10^6 DNA bases using FapyGua substrate incubated for 1 hr by GC-MS/MS assay
[12] = target: T4, Formamidopyrimidine-DNA glycosylase (Escherichia coli (strain K12), UniProt P05523); assay: Inhibition of Escherichia coli FPG using 8-oxo-Gua substrate incubated for 10 mins by TAMRA fluorescence-based assay
T4 sequence (P05523 whole entry): T3 sequence (whole entry)

[13] = target: T3, Formamidopyrimidine-DNA glycosylase (Escherichia coli (strain K12)); assay: Inhibition of Escherichia coli FPG assessed as reduction in enzyme-mediated incision using compound pre-incubated with 8-oxo-Gua substrate for 30 mins at 37 degC followed by enzyme addition
[14] = target: T3, Formamidopyrimidine-DNA glycosylase (Escherichia coli (strain K12)); assay: Inhibition of Escherichia coli FPG assessed as reduction in enzyme-mediated incision using compound pre-incubated with AP-site containing DNA substrate for 30 mins at 37 degC followed by enzyme addition
[15] = target: T5, Endonuclease III-like protein 1 (Homo sapiens, UniProt P78549); assay: Inhibition of NTH1 (unknown origin) incubated for 40 mins by TAMRA fluorescence-based assay
T5 sequence (P78549 whole entry): T2 sequence (whole entry)

[16] = target: T2, Endonuclease III-like protein 1 (Homo sapiens); assay: Inhibition of NTH1 (unknown origin) assessed as effect on DNA lesions per 10^6 DNA bases using 5-OH-5-MeHyd substrate incubated for 1 hr by GC-MS/MS assay
[17] = target: T2, Endonuclease III-like protein 1 (Homo sapiens); assay: Inhibition of NTH1 (unknown origin) assessed as effect on DNA lesions per 10^6 DNA bases using 5-hydroxycytosine substrate incubated for 1 hr by GC-MS/MS assay
N-glycosylase/DNA lyase [18] = target: T6, N-glycosylase/DNA lyase (Homo sapiens, UniProt O15527); assay: Inhibition of human OGG1 assessed as protection against NaOH-mediated strand cleavage using AP-containing substrate; design: scale not given: the % may be the effect or the level left
[19] = Selectivity index, ratio of IC50 for inhibition of Escherichia coli FPG using 8-oxo-Gua substrate incubated for 10 mins by TAMRA fluorescence-based assay to IC50 for inhibition of human OGG1 incubated for 30 mins using 8-oxo-Gua-containing substrate by TAMRA fluorescence-based assay
N-glycosylase/DNA lyase [20] = target: T6, N-glycosylase/DNA lyase; assay: Inhibition of human OGG1 assessed as reduction in AP lyase activity using AP-containing substrate
N-glycosylase/DNA lyase [21] = target: T6, N-glycosylase/DNA lyase; assay: Inhibition of human OGG1 catalytic activity assessed as reduction trapping of substrates at 10 uM using 8-oxo-Gua substrate in presence of sodium cyno-borohydride by gel electrophoresis method
N-glycosylase/DNA lyase [22] = target: T6, N-glycosylase/DNA lyase; assay: Inhibition of human OGG1 assessed as reduction in free Inhibition of human OGG1 assessed as reduction in free FapyGua release using gamma-irradiated calf thymus DNA substrate incubated for 1 hr by GC-MS/MS assay
N-glycosylase/DNA lyase [23] = target: T6, N-glycosylase/DNA lyase; assay: Inhibition of human OGG1 binding to 8-oxo-Gua substrate using compound pre-incubated with enzyme for 5 to 10 mins before substrate addition and further incubated for 5 mins by native gel electrophoresis based by gel-shift assay
Homo sapiens [24] = organism: Homo sapiens; assay: Selectivity index, ratio of IC50 for inhibition of NTH1 (unknown origin) incubated for 40 mins by TAMRA fluorescence-based assay to IC50 for inhibition of human OGG1 incubated for 30 mins using 8-oxo-Gua-containing substrate by TAMRA fluorescence-based assay
N-glycosylase/DNA lyase [25] = target: T6, N-glycosylase/DNA lyase; assay: Inhibition of human OGG1 catalytic activity assessed as reduction trapping of substrates at 10 uM using AP site containing substrate in presence of sodium cyno-borohydride by gel electrophoresis method
N-glycosylase/DNA lyase [26] = target: T6, N-glycosylase/DNA lyase; assay: Inhibition of human OGG1 assessed as reduction in free 8-oxo-Gua release using gamma-irradiated calf thymus DNA substrate incubated for 1 hr by GC-MS/MS assay
Homo sapiens [27] = organism: Homo sapiens; assay: Selectivity index, ratio of IC50 for inhibition of NEIL1 (unknown origin) using Sp/Gh substrate incubated for 40 mins by TAMRA fluorescence-based assay to IC50 for inhibition of human OGG1 incubated for 30 mins using 8-oxo-Gua-containing substrate by TAMRA fluorescence-based assay

T6 sequence (O15527 whole entry): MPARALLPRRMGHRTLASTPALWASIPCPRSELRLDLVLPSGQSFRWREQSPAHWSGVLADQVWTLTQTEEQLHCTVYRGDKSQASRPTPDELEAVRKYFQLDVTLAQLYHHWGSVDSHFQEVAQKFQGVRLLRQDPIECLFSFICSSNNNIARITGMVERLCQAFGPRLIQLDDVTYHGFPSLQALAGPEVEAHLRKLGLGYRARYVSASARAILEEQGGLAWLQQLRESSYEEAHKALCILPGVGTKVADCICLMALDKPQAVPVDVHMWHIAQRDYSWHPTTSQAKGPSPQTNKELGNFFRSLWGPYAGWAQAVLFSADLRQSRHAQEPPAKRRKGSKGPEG
T1 sequence (Q96FI4 whole entry): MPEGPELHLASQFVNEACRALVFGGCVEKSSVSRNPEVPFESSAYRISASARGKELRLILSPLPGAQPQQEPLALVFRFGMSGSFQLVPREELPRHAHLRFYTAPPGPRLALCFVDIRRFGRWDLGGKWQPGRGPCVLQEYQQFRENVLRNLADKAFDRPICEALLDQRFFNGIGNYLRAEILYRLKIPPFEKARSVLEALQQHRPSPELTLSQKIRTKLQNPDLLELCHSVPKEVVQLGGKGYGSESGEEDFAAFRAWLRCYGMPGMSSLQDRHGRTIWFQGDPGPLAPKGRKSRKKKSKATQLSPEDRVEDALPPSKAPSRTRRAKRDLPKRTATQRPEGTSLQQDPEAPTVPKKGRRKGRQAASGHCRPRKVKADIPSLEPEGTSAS

Activity (Endonuclease 8-like 1 [1]) | Activity [2] | inhibition [3] | inhibition [4] | Activity [5] | inhibition (Endonuclease 8-like 1 [6]) | IC50 (Endonuclease 8-like 1 [7]) | Activity [8] | inhibition [9] | inhibition (Endonuclease 8-like 1 [10]) | inhibition (Endonuclease 8-like 1 [11]) | IC50 [12] | inhibition [13] | inhibition [14] | IC50 [15] | inhibition [16] | inhibition [17] | Compound | other results
96.4% | 108% |  |  |  |  |  |  |  |  |  |  |  |  |  |  |  | O=C(CCNNC(=O)c1ccncc1)NCc1ccccc1 | 
82.3% | 94.8% | inactive | inactive | 87.3% | inactive | > 50 µM | inactive | inactive | inactive | inactive | > 50 µM | inactive | inactive | > 50 µM | inactive | inactive | CC1CCCC/C1=N/NC(=O)c1sc2ccccc2c1Cl (centres undefined) | 
 |  |  |  |  |  |  |  |  |  |  |  |  |  |  |  |  | NNc1nncc2ccccc12 | Activity (N-glycosylase/DNA lyase [18]): 64%
87.4% | 83% | inactive | inactive | 77% | inactive | > 50 µM | inactive | inactive | inactive | inactive | > 50 µM | inactive | inactive | > 50 µM | inactive | inactive | O=C(NN=C1CCCCC1)c1cc2ccccc2cc1O | Ratio IC50 [19]: > 200; inhibition (N-glycosylase/DNA lyase [20]): Active; inhibition (N-glycosylase/DNA lyase [21]): Active; inhibition (N-glycosylase/DNA lyase [22]): Active; inhibition (N-glycosylase/DNA lyase [23]): inactive; Ratio IC50 (Homo sapiens [24]): > 200; inhibition (N-glycosylase/DNA lyase [25]): Active; Activity (N-glycosylase/DNA lyase [18]): 10%; inhibition (N-glycosylase/DNA lyase [26]): Active; Ratio IC50 (Homo sapiens [27]): > 200
83.7% | 75.1% |  |  | 95% |  |  | inactive |  |  |  |  |  |  |  |  |  | Cc1cc(OCC(=O)NN)cc(C)c1Cl | 
91.2% | 96.1% |  |  |  |  |  | inactive |  |  |  |  |  |  |  |  |  | CCCN1CCC(=NNC(=O)c2ccc(Cl)cc2Cl)CC1 | 
97.6% | 84.5% | inactive | inactive | 91.7% | inactive | > 50 µM | inactive | inactive | inactive | inactive | > 50 µM | inactive | inactive | > 50 µM | inactive | inactive | O=C(NN=C1CCCCC1)c1ccc(Br)cc1 | 
93.5% | 90.6% |  |  | 78.8% |  |  | inactive |  |  |  |  |  |  |  |  |  | C=CCC/C(C)=N\NC(=O)c1cccc(Br)c1 | 
101% | 92.6% |  |  | 90.9% |  |  | inactive |  |  |  |  |  |  |  |  |  | CCCC/C(C)=N\NC(=O)c1cccc(Br)c1 | 

Reference: ChEMBL document CHEMBL4421727, “Small molecule inhibitors of 8-oxoguanine dna glycosylase-1 (ogg1)” (2017)
